#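 How tested: cells in 96-well plates exposed to compound for 48 hours at five concentrations. The concentration for 50% growth inhibition is given as GI50. Definition used: TGI = concentration required for complete inhibition of growth.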
# Legend:
# Experiment in all cases: NCI anticancer screen, dose series, 48 h
# [1] = test system: UACC-62 melanoma
# [2] = test system: CCRF-CEM leukemia
# [3] = test system: HOP-62 NSCLC
# [4] = test system: HS 578T breast
# [5] = test system: U251 CNS
# [6] = test system: MDA-MB-435
# [7] = test system: UACC-257 melanoma
# [8] = test system: LOX IMVI melanoma
# [9] = test system: SK-OV-3 ovarian
# [10] = test system: IGROV1 ovarian
# [11] = test system: MOLT-4 leukemia
# [12] = test system: OVCAR-4 ovarian
# [13] = test system: HT29 colon
# [14] = test system: BT-549 breast
# [15] = test system: KM12 colon
# [16] = test system: SF-268 CNS
# [17] = test system: UO-31 renal
# [18] = test system: CAKI-1 renal
# [19] = test system: NCI-H23 lung
# [20] = test system: HCT-116 colon
# [21] = test system: M14 melanoma
# [22] = test system: NCI/ADR-RES ovarian
# [23] = test system: SK-MEL-5 melanoma
# [24] = test system: SK-MEL-28 melanoma
# [25] = test system: OVCAR-8 ovarian
# [26] = test system: NCI-H460 lung
# [27] = test system: 786-0 renal
# [28] = test system: HL-60(TB) leukemia
# [29] = test system: HOP-92 NSCLC
# [30] = test system: COLO 205 colon
# [31] = test system: HCT-15 colon
# [32] = test system: PC-3 prostate
# [33] = test system: T-47D breast
# [34] = test system: ACHN renal
# [35] = test system: EKVX NSCLC
# [36] = test system: NCI-H226 lung
# [37] = test system: SF-539 CNS
# [38] = test system: OVCAR-5 ovarian
# [39] = test system: RPMI-8226 leukemia
# [40] = test system: SW-620 colon
# [41] = test system: MCF7 breast
# [42] = test system: OVCAR-3 ovarian
# [43] = test system: SNB-19 CNS
# [44] = test system: MDA-MB-231 breast
# [45] = test system: SK-MEL-2 melanoma
# [46] = test system: TK-10 renal
# [47] = test system: A549 NSCLC
# [48] = test system: SF-295 CNS
# [49] = test system: RXF 393 renal
# [50] = test system: NCI-H522 lung
# [51] = test system: MALME-3M melanoma
# [52] = test system: SN12C renal
# [53] = test system: A498 renal
# [54] = test system: DU-145 prostate
# [55] = test system: K-562 leukemia
# [56] = test system: SNB-75 CNS
# [57] = test system: HCC-2998 colon
structure (smiles),measurement,setting,value
COc1cc(C(=O)O[C@H](C(N)=O)[C@]2(C)CO2)c2ccccc2c1,GI50,[1],15.9 µM
same,TGI,[1],29.8 µM
same,GI50,[2],10.9 µM
same,TGI,[2],58 µM
same,GI50,[3],5.72 µM
same,TGI,[3],17.9 µM
same,GI50,[4],16.6 µM
same,TGI,[4],41 µM
same,GI50,[5],18.6 µM
same,TGI,[5],35.4 µM
same,GI50,[6],23.7 µM
same,TGI,[6],53.2 µM
same,GI50,[7],31.8 µM
same,TGI,[7],> 100 µM
same,GI50,[8],24.7 µM
same,TGI,[8],59.8 µM
same,GI50,[9],14.3 µM
same,TGI,[9],28 µM
same,GI50,[10],34.6 µM
same,TGI,[10],98.4 µM
same,GI50,[11],17 µM
same,TGI,[11],48.9 µM
same,GI50,[12],10.1 µM
same,TGI,[12],48.6 µM
same,GI50,[13],13.7 µM
same,TGI,[13],27.9 µM
same,GI50,[14],18.5 µM
same,TGI,[14],38.9 µM
same,GI50,[15],15.6 µM
same,TGI,[15],32.4 µM
same,GI50,[16],14.2 µM
same,TGI,[16],36.7 µM
same,GI50,[17],33.7 µM
same,TGI,[17],> 100 µM
same,GI50,[18],20.6 µM
same,TGI,[18],39.8 µM
same,GI50,[19],7.95 µM
same,TGI,[19],21.8 µM
same,GI50,[20],5.21 µM
same,TGI,[20],15.8 µM
same,GI50,[21],15.1 µM
same,TGI,[21],40 µM
same,GI50,[22],12.3 µM
same,TGI,[22],30.3 µM
same,GI50,[23],7.52 µM
same,TGI,[23],22 µM
same,GI50,[24],15.6 µM
same,TGI,[24],31.5 µM
same,GI50,[25],5.87 µM
same,TGI,[25],25.3 µM
same,GI50,[26],10.4 µM
same,TGI,[26],57.1 µM
same,GI50,[27],5.08 µM
same,TGI,[27],17.3 µM
same,GI50,[28],40.9 µM
same,TGI,[28],> 100 µM
same,GI50,[29],20.3 µM
same,TGI,[29],50.6 µM
same,GI50,[30],16.6 µM
same,TGI,[30],39.7 µM
same,GI50,[31],23.8 µM
same,TGI,[31],70.6 µM
same,GI50,[32],25 µM
same,TGI,[32],> 100 µM
same,GI50,[33],10.7 µM
same,TGI,[33],27.3 µM
same,GI50,[34],15.9 µM
same,TGI,[34],30.9 µM
same,GI50,[35],18 µM
same,TGI,[35],50 µM
same,GI50,[36],20.1 µM
same,TGI,[36],38.4 µM
same,GI50,[37],2.41 µM
same,TGI,[37],7.55 µM
same,GI50,[38],11.5 µM
same,TGI,[38],33.1 µM
same,GI50,[39],22.8 µM
same,TGI,[39],> 100 µM
same,GI50,[40],18.8 µM
same,TGI,[40],> 100 µM
same,GI50,[41],27.3 µM
same,TGI,[41],> 100 µM
same,GI50,[42],22.7 µM
same,TGI,[42],45.2 µM
same,GI50,[43],15.8 µM
same,TGI,[43],30.3 µM
same,GI50,[44],13 µM
same,TGI,[44],27.7 µM
same,GI50,[45],17.2 µM
same,TGI,[45],42.7 µM
same,GI50,[46],19.7 µM
same,TGI,[46],37.5 µM
same,GI50,[47],15.4 µM
same,TGI,[47],73 µM
same,GI50,[48],20.4 µM
same,TGI,[48],37.9 µM
same,GI50,[49],17.3 µM
same,TGI,[49],47.3 µM
same,GI50,[50],33.2 µM
same,TGI,[50],> 100 µM
same,GI50,[51],16.2 µM
same,TGI,[51],36.5 µM
CCOC(=O)c1c(C)n(Cc2ccc(OC)cc2)c2c1cc(O)c1[nH]c3c(c12)CCCC3,GI50,[1],1.97 µM
same,TGI,[1],4.61 µM
same,GI50,[52],7.79 µM
same,TGI,[52],28.9 µM
same,GI50,[2],4.22 µM
same,TGI,[2],> 100 µM
same,GI50,[3],10.5 µM
same,TGI,[3],24.9 µM
same,GI50,[4],3.26 µM
same,TGI,[4],21.8 µM
same,GI50,[53],21.3 µM
same,TGI,[53],60.6 µM
same,GI50,[5],2.31 µM
same,TGI,[5],5.89 µM
same,GI50,[6],15.9 µM
same,TGI,[6],82 µM
same,GI50,[7],1.77 µM
same,TGI,[7],9.66 µM
same,GI50,[8],3.91 µM
same,TGI,[8],16.6 µM
same,GI50,[9],9.47 µM
same,TGI,[9],51.3 µM
same,GI50,[10],3.76 µM
same,TGI,[10],20.5 µM
same,GI50,[12],15.6 µM
same,TGI,[12],88.6 µM
same,GI50,[13],12.9 µM
same,TGI,[13],> 100 µM
same,GI50,[14],4.21 µM
same,TGI,[14],27.8 µM
same,GI50,[15],2.04 µM
same,TGI,[15],5.43 µM
same,GI50,[16],3.47 µM
same,TGI,[16],18.7 µM
same,GI50,[17],1.84 µM
same,TGI,[17],4.05 µM
same,GI50,[18],16.4 µM
same,TGI,[18],54.9 µM
same,GI50,[19],1.9 µM
same,TGI,[19],13.3 µM
same,GI50,[20],2.74 µM
same,TGI,[20],12.1 µM
same,GI50,[21],11.8 µM
same,TGI,[21],34.2 µM
same,GI50,[54],27.5 µM
same,TGI,[54],> 100 µM
same,GI50,[23],1.74 µM
same,TGI,[23],3.24 µM
same,GI50,[24],10.7 µM
same,TGI,[24],> 100 µM
same,GI50,[25],3.05 µM
same,TGI,[25],10.9 µM
same,GI50,[26],8.63 µM
same,TGI,[26],27.8 µM
same,GI50,[55],5.22 µM
same,TGI,[55],> 100 µM
same,GI50,[27],13.1 µM
same,TGI,[27],49.4 µM
same,GI50,[28],3.03 µM
same,TGI,[28],> 100 µM
same,GI50,[56],4.77 µM
same,TGI,[56],> 100 µM
same,GI50,[29],2.5 µM
same,TGI,[29],55.4 µM
same,GI50,[30],0.0865 µM
same,TGI,[30],8.35 µM
same,GI50,[31],3.44 µM
same,TGI,[31],13.2 µM
same,GI50,[32],2.86 µM
same,TGI,[32],37.4 µM
same,GI50,[33],2.02 µM
same,TGI,[33],38.8 µM
same,GI50,[34],6.72 µM
same,TGI,[34],35.6 µM
same,GI50,[35],4.9 µM
same,TGI,[35],52.5 µM
same,GI50,[36],15.5 µM
same,TGI,[36],32.9 µM
same,GI50,[37],2.76 µM
same,TGI,[37],7.07 µM
same,GI50,[38],2.39 µM
same,TGI,[38],17.5 µM
same,GI50,[39],3.78 µM
same,TGI,[39],58 µM
same,GI50,[40],3.72 µM
same,TGI,[40],13.9 µM
same,GI50,[41],4.97 µM
same,TGI,[41],19.8 µM
same,GI50,[57],2.39 µM
same,TGI,[57],14.5 µM
same,GI50,[42],3.73 µM
same,TGI,[42],18.6 µM
same,GI50,[43],4.84 µM
same,TGI,[43],65.2 µM
same,GI50,[44],0.617 µM
same,TGI,[44],> 100 µM
same,GI50,[45],2.39 µM
same,TGI,[45],7.05 µM
same,GI50,[46],12.5 µM
same,TGI,[46],52.9 µM
same,GI50,[47],8.71 µM
same,TGI,[47],71.9 µM
same,GI50,[48],13.7 µM
same,TGI,[48],42.8 µM
same,GI50,[49],11.6 µM
same,TGI,[49],43.5 µM
same,GI50,[50],1.75 µM
same,TGI,[50],3.97 µM
same,GI50,[51],2.85 µM
same,TGI,[51],18.4 µM

# Reference: PubChem BioAssay (NCI)
